According to US20090042898A1, “USE OF COMPOUNDS ACTIVE ON THE SIGMA RECEPTOR FOR THE TREATMENT OF MECANICAL ALLODYNIA” (priority 2004, published 2009):

Tests used:
[1] = tested on: capsaicin-induced allodynia; test: Von Frey model, capsaicin-induced mechanical allodynia; format: in vivo, mice
Description: The von Frey model is a model for allodynia, stimulated mechanically (mechanical allodynia).
Interest of the model: • The injection of capsaicin to experimental animals produces acute pain followed by allodynia • The mechanisms involved in capsaicin-induced acute pain and allodynia are relatively well known (mainly activation of peripheral nociceptors and sensitization of spinal cord neurons, respectively)
After habituation mice were according to FIG. 1 first treated with the test-compound (or not in controls). Then capsaicin (1% DMSO) is injected into their paw resulting in developing pain in the effected paw. The effected paw is then treated with a mechanical stimulus and the latency time before the paw is withdrawn is measured.
2 well known antisense Oligodesoxynucleotides (ODN) against the sigma 1 receptor (King et al. (1997) Eur J Pharmacol 331:R5-R6 and Ueda et al. (2001) J. Pharmacol. Exp. Ther. 298, 703-710) were synthesized and according to the protocol shown in FIG. 3a) given on 4 consecutive days i.c.v. followed by a wash-out period and von-Frey tests according to example 1.

[2] = tested on: mechanical allodynia in mice exposed to the sciatic nerve injury; test: Von Frey model in mice exposed to sciatic nerve injury (partial sciatic nerve ligation); format: in vivo; conditions: FIG. 5, 60 mg/kg subcutaneous, Day 11 after surgery, ipsilateral
Protocol: The partial sciatic nerve ligation model was used to induce neuropathic pain (Malmberg and Basbaum, Pain 76: 215-222, 1998). This model consists of injury to the sciatic nerve at mid-to high level. Briefly, mice were anaesthetized with halothane (induction: 3%; surgery: 1%) and the common sciatic nerve was exposed at the level of the mid-thigh of the right paw. In control animals (sham-operated mice), an identical dissection was performed on the right paw except that the sciatic nerve was not ligated (Control). Nociceptive sensitivity was then measured was quantified by measuring the hind paw withdrawal response to von Frey filament stimulation as mentioned above. Animals underwent surgery on day 0; 11 days after surgery BD-1063 was injected subcutaneously in one group and the responses to mechanical stimuli were determined by means of the von Frey model in this and the none-treated group (before surgery) a reference value was measured in order to determine a baseline value.

sigma receptor = conditions: Sigma 1 and Sigma 2 for pentazocine; cited from earlier work

O=C(OCCN1CCOCC1)C1(c2ccccc2)CCCCC1 [PRE-084]
effect of sigma receptor agonist on the effect of NE-100 ([1]; FIG. 2c, given with NE-100): counteracting the effect of NE-100

CN1CCN(CCc2ccc(Cl)c(Cl)c2)CC1 [BD-1063, 1-(3,4-dichlorophenethyl)-4-methylpiperazine]
effect on mechanical allodynia, von Frey model [2]: antagonizes mechanical allodynia in mice exposed to the (ipsilateral) sciatic nerve injury significantly

CCCN(CCC)CCc1ccc(OC)c(OCCc2ccccc2)c1 [NE-100]
analgesia in capsaicin-induced allodynia, dose dependency ([1]; FIG. 2a, mice, von Frey filaments): dose dependency of the treatment with NE-100 showing analgesia
efficacy depending on the force of the von-Frey filaments (0.5 g allodynia vs 4 g general pain) ([1]; FIG. 2b, NE-100 64 mg/kg): effective specifically in allodynia or mechanical allodynia and not general pain
affinity to the sigma receptor (sigma receptor): high affinity

CC(C)=CCN1CCC2(C)c3cc(O)ccc3CC1C2C (stereo not drawn) [pentazocine]
affinity to the sigma receptor (sigma receptor): very high affinity
